From ChEMBL document CHEMBL5537115, “New broad-spectrum and potent antibacterial agents with dual-targeting mechanism: Promoting FtsZ polymerization and disrupting bacterial membranes” (Eur J Med Chem, 2024)

Experiments:
Type in all cases: functional
Staphylococcus aureus [1] = test: Antibacterial activity against Staphylococcus aureus clinical isolate incubated for 18 to 24 hrs; conditions: time 18-24 hrs
Acinetobacter baumannii [2] = test: Antibacterial activity against Acinetobacter baumannii ATCC19606 assessed as bacterial growth inhibition incubated for 20 hrs by CLSI based broth microdilution method
Escherichia coli [3] = test: Antibacterial activity against penicillin-susceptible Escherichia coli ATCC25922 assessed as bacterial growth inhibition incubated for 20 hrs by CLSI based broth microdilution method
Staphylococcus aureus [4] = test: Antibacterial activity against penicillin-resistant Staphylococcus aureus ATCC31007 assessed as bacterial growth inhibition incubated for 20 hrs by CLSI based broth microdilution method
Staphylococcus aureus [5] = test: Antibacterial activity against erythromycin-susceptible Staphylococcus aureus ATCC25923 incubated for 18 to 24 hrs; conditions: time 18-24 hrs
Staphylococcus aureus [6] = test: Antibacterial activity against methicillin-resistant Staphylococcus aureus ATCC43300 incubated for 18 to 20 hrs; conditions: time 18-20 hrs
Enterococcus faecium [7] = test: Antibacterial activity against vancomycin-resistant Enterococcus faecium ATCC51559 assessed as bacterial growth inhibition incubated for 20 hrs by CLSI based broth microdilution method
[8] = tested on: Staphylococcus epidermidis; test: Antibacterial activity against penicillin-resistant Staphylococcus epidermidis clinical isolate assessed as bacterial growth inhibition incubated for 20 hrs by CLSI based broth microdilution method
Staphylococcus aureus [9] = test: Antibacterial activity against Staphylococcus aureus clinical isolate assessed as bacterial growth inhibition incubated for 20 hrs by CLSI based broth microdilution method
Streptococcus pyogenes [10] = test: Antibacterial activity against erythromycin-susceptible Streptococcus pyogenes 1 assessed as bacterial growth inhibition incubated for 20 hrs by CLSI based broth microdilution method
Klebsiella pneumoniae = test: Antibacterial activity against Klebsiella pneumoniae ATCC BAA-1902 assessed as bacterial growth inhibition incubated for 20 hrs by CLSI based broth microdilution method
Bacillus subtilis [11] = test: Selectivity ratio of MBC for penicillin-susceptible Bacillus subtilis ATCC9372 to MIC for penicillin-susceptible Bacillus subtilis ATCC9372
Enterococcus faecalis [12] = test: Antibacterial activity against vancomycin-resistant Enterococcus faecalis ATCC51299 assessed as bacterial growth inhibition incubated for 20 hrs by CLSI based broth microdilution method
Bacillus subtilis [13] = test: Antibacterial activity against penicillin-susceptible Bacillus subtilis ATCC9372 assessed as bacterial growth inhibition incubated for 20 hrs by CLSI based broth microdilution method
Enterococcus faecalis [14] = test: Antibacterial activity against vancomycin-susceptible Enterococcus faecalis ATCC29212 assessed as bacterial growth inhibition incubated for 20 hrs by CLSI based broth microdilution method
Streptococcus pyogenes [15] = test: Antibacterial activity against erythromycin-resistant Streptococcus pyogenes 2 clinical isolate assessed as bacterial growth inhibition incubated for 20 hrs by CLSI based broth microdilution method
Bacillus pumilus = test: Antibacterial activity against penicillin-susceptible Bacillus pumilus CMCC63202 assessed as bacterial growth inhibition incubated for 20 hrs by CLSI based broth microdilution method
Acinetobacter baumannii [16] = test: Antibacterial activity against Acinetobacter baumannii ATCC19606 incubated for 18 to 24 hrs; conditions: time 18-24 hrs
Bacillus subtilis [17] = test: Antibacterial activity against penicillin-susceptible Bacillus subtilis ATCC9372 incubated for 18 to 24 hrs; conditions: time 18-24 hrs
Enterococcus faecium [18] = test: Antibacterial activity against vancomycin-susceptible Enterococcus faecium ATCC19434 assessed as bacterial growth inhibition incubated for 20 hrs by CLSI based broth microdilution method
Escherichia coli [19] = test: Antibacterial activity against wild-type Escherichia coli BW25113 assessed as bacterial growth inhibition incubated for 20 hrs by CLSI based broth microdilution method
Staphylococcus aureus [20] = test: Antibacterial activity against erythromycin-susceptible Staphylococcus aureus ATCC25923 assessed as bacterial growth inhibition incubated for 20 hrs by CLSI based broth microdilution method
Staphylococcus aureus [21] = test: Antibacterial activity against methicillin-resistant Staphylococcus aureus ATCC43300 assessed as bacterial growth inhibition incubated for 20 hrs by CLSI based broth microdilution method
Staphylococcus aureus [22] = test: Selectivity ratio of MBC for erythromycin-susceptible Staphylococcus aureus ATCC25923 to MIC for erythromycin-susceptible Staphylococcus aureus ATCC25923
Staphylococcus aureus [23] = test: Induction of resistance development in Staphylococcus aureus ATCC25923 assessed as fold increase in MIC at 0.5 times MIC measured after 32 days by multi-passage resistance assay relative to control; conditions: time 32.0 day
Acinetobacter baumannii [24] = test: Selectivity ratio of MBC for Acinetobacter baumannii ATCC19606 to MIC for Acinetobacter baumannii ATCC19606
Staphylococcus aureus [25] = test: Selectivity ratio of MBC for Staphylococcus aureus clinical isolate to MIC for Staphylococcus aureus clinical isolate

Row | Structure (SMILES) | MBC (Staphylococcus aureus [1]) [µg/mL] | MIC (Acinetobacter baumannii [2]) [µg/mL] | MIC (Escherichia coli [3]) [µg/mL] | MIC (Staphylococcus aureus [4]) [µg/mL] | MBC (Staphylococcus aureus [5]) [µg/mL] | MBC (Staphylococcus aureus [6]) [µg/mL] | MIC (Enterococcus faecium [7]) [µg/mL] | MIC [8] [µg/mL] | MIC (Staphylococcus aureus [9]) [µg/mL] | MIC (Streptococcus pyogenes [10]) [µg/mL] | MIC (Klebsiella pneumoniae) [µg/mL] | Ratio (Bacillus subtilis [11]) | MIC (Enterococcus faecalis [12]) [µg/mL] | MIC (Bacillus subtilis [13]) [µg/mL] | MIC (Enterococcus faecalis [14]) [µg/mL] | MIC (Streptococcus pyogenes [15]) [µg/mL] | MIC (Bacillus pumilus) [µg/mL] | MBC (Acinetobacter baumannii [16]) [µg/mL] | MBC (Bacillus subtilis [17]) [µg/mL] | MIC (Enterococcus faecium [18]) [µg/mL] | further results
1 | C[n+]1cc2c3c(ccc2c2ccc4cc5c(cc4c21)OCO5)OCO3 | > 64 | 64 | 32 | 16 | > 64 | > 64 | 32 | 8 | 8 | 2 | 64 | 16 | 32 | 4 | 16 | 2 | 4 | > 64 | 64 | 64 | MIC (Escherichia coli [19]): 64 µg/mL; MIC (Staphylococcus aureus [20]): 4 µg/mL; MIC (Staphylococcus aureus [21]): 8 µg/mL; Ratio (Staphylococcus aureus [22]): >32
2 | CO[C@H]1/C=C/O[C@@]2(C)Oc3c(C)c(O)c4c(O)c(c(/C=N/N5CCN(C)CC5)c(O)c4c3C2=O)NC(=O)/C(C)=C\C=C\[C@H](C)[C@H](O)[C@@H](C)[C@@H](O)[C@@H](C)[C@H](OC(C)=O)[C@@H]1C |  |  |  |  |  |  |  |  |  |  |  |  |  |  |  |  |  |  |  |  | fold change (FC) (Staphylococcus aureus [23]): 8192
3 | CN(C)c1ccc(/C=C/c2cc(-c3ccc(C(C)(C)C)cc3)[n+](C)cc2-c2ccccc2)cc1.[I-] | 1 | 1 | 4 | 0.5 | 1 | 1 | 2 | 1 | 0.125 | 2 | 8 | 16 | 2 | 0.125 | 2 | 2 | 0.25 | 4 | 2 | 2 | Ratio (Acinetobacter baumannii [24]): 4; MIC (Escherichia coli [19]): 8 µg/mL; MIC (Staphylococcus aureus [20]): 0.125 µg/mL; MIC (Staphylococcus aureus [21]): 0.25 µg/mL; Ratio (Staphylococcus aureus [25]): 4; Ratio (Staphylococcus aureus [22]): 8
